# Activity calls are given as the source filed them. The rule behind the calls is not given here.
# Tests used:
# [1] = system: A549; assay: Inhibition of DMBA induced taxol resistance in human A549 cells; format: functional, cell-based; details: dose 2.5-10 µM
# [2] = system: A549/TR; assay: Synergistic antiproliferative activity against human A549/Taxol cells assessed as inhibition of cell growth at 3.75 to 30 uM incubated for 72 hrs in presence of taxol by MTT assay; format: functional; set-up: scale not given: the % may be the effect or the level left; details: dose 3.75-30 µM
# [3] = system: A549/TR; assay: Reversal of taxol resistance human A549/Taxol cells assessed as increase in sensitivity incubated for 72 hrs by MTT assay; format: functional, cell-based
# [4] = system: A549/TR; assay: Synergistic antiproliferative activity against human A549/Taxol cells assessed as increase in taxol by measuring combination index at 3.75 uM incubated for 72 hrs in presence of 0.25 uM taxol by MTT assay; format: functional
# [5] = system: A549/TR; assay: Synergistic antiproliferative activity against human A549/Taxol cells assessed as increase in taxol by measuring combination index at 7.50 uM incubated for 72 hrs in presence of 0.06 uM taxol by MTT assay; format: functional; details: dose 7.5 µM
# [6] = system: A549/TR; assay: Synergistic antiproliferative activity against human A549/Taxol cells assessed as increase in taxol by measuring combination index at 7.50 uM incubated for 72 hrs in presence of 0.50 uM taxol by MTT assay; format: functional; details: dose 7.5 µM
# [7] = system: A549/TR; assay: Synergistic antiproliferative activity against human A549/Taxol cells assessed as increase in taxol by measuring combination index at 15 uM incubated for 72 hrs in presence of 0.50 uM taxol by MTT assay; format: functional
# [8] = system: A549/TR; assay: Synergistic antiproliferative activity against human A549/Taxol cells assessed as increase in taxol by measuring combination index at 30 uM incubated for 72 hrs in presence of 0.06 uM taxol by MTT assay; format: functional
# [9] = system: A549/TR; assay: Synergistic antiproliferative activity against human A549/Taxol cells assessed as increase in taxol by measuring combination index at 30 uM incubated for 72 hrs in presence of 0.50 uM taxol by MTT assay; format: functional
# [10] = system: A549/TR; assay: Reversal of taxol resistance in human A549/Taxol cells assessed as increase in Rho123 accumulation at 2.5 to 10 uM incubated for 20 mins by multimode plate reader analysis; format: functional, cell-based; details: dose 2.5-10 µM
# [11] = system: A549/TR; assay: Inhibition of cell invasion in human A549/Taxol cells at 2.5 to 10 uM incubated for 18 hrs by optical microscopic analysis; format: functional, cell-based; details: dose 2.5-10 µM
# [12] = system: A549; assay: Inhibition of DMBA-induced CYP1B1 expression level in human A549 cells at 5 uM incubated for 24 hrs; format: functional, cell-based
# [13] = system: NCI-H460; assay: Upregulation of DMBA-induced CYP1B1 expression level in human NCI-H460 cells incubated for 24 hrs; format: functional, cell-based; details: dose 1-10 µM
# [14] = system: NCI-H460; assay: Inhibition of DMBA-induced AKT overexpression in human taxol resistance NCI-H460 cells at 5 uM incubated for 24 hrs; format: functional, cell-based
# [15] = system: A549; assay: Inhibition of DMBA-induced CYP1B1 overexpression in human A549 cells assessed as increase in SRC level incubated for 24 hrs by densitometry analysis; format: functional, cell-based; details: dose 5.0 µM
# [16] = system: NCI-H460; assay: Inhibition of DMBA-induced CYP1B1 overexpression in human NCI-H460 cells assessed as increase in SRC level incubated for 24 hrs by densitometry analysis; format: functional, cell-based; details: dose 5.0 µM
# [17] = system: A549; assay: Inhibition of DMBA-induced CYP1B1 overexpression in human A549 cells assessed as increase in Paxillin level incubated for 24 hrs by densitometry analysis; format: functional, cell-based; details: dose 5.0 µM
# [18] = system: A549; assay: Inhibition of cell migration in DMBA-induced human A549 cells at 5 uM incubated for 48 hrs by inverted microscopic analysis; format: functional, cell-based
# [19] = system: A549; assay: Inhibition of cell invasion in DMBA-induced human A549 cells at 5 uM by optical microscopic analysis; format: functional, cell-based
# [20] = system: A549; assay: Inhibition of DMBA-induced CYP1B1 overexpression in human A549 cells assessed as increase in snail level incubated for 24 hrs by densitometry analysis; format: functional, cell-based; details: dose 5.0 µM
# [21] = system: NCI-H460; assay: Inhibition of DMBA-induced CYP1B1 overexpression in human NCI-H460 cells assessed as increase in snail level incubated for 24 hrs by densitometry analysis; format: functional, cell-based; details: dose 5.0 µM
# [22] = system: A549; assay: Inhibition of DMBA-induced CYP1B1 overexpression in human A549 cells assessed as increase in N-cadherin level incubated for 24 hrs by densitometry analysis; format: functional, cell-based; details: dose 5.0 µM
# [23] = system: NCI-H460; assay: Inhibition of DMBA-induced CYP1B1 overexpression in human NCI-H460 cells assessed as increase in Vimentin level incubated for 24 hrs by densitometry analysis; format: functional, cell-based; details: dose 5.0 µM
# [24] = system: NCI-H460; assay: Inhibition of DMBA-induced CYP1B1 overexpression in human NCI-H460 cells assessed as decrease in E-cadherin level incubated for 24 hrs by densitometry analysis; format: functional, cell-based; details: dose 5.0 µM
# [25] = system: NCI-H460; assay: Inhibition of DMBA-induced CYP1B1 overexpression in human NCI-H460 cells assessed as effect on MMP-9 level at 5 uM incubated for 24 hrs by densitometry analysis; format: functional, cell-based
# [26] = system: NCI-H460; assay: Inhibition of DMBA-induced CYP1B1 overexpression in human NCI-H460 cells assessed as effect on Snail level at 5 uM incubated for 24 hrs by densitometry analysis; format: functional, cell-based
# [27] = system: A549; assay: Inhibition of DMBA-induced CYP1B1 overexpression in human A549 cells assessed as effect on Snail level at 5 uM incubated for 24 hrs by densitometry analysis; format: functional, cell-based
# [28] = system: NCI-H460; assay: Inhibition of DMBA-induced CYP1B1 overexpression in human NCI-H460 cells assessed as decrease in Vimentin level at 5 uM incubated for 24 hrs by densitometry analysis; format: functional, cell-based
# [29] = target: T1, Cytochrome P450 1A2 (Homo sapiens, UniProt P05177); assay: Inhibition of recombinant human CYP1A2 using 7-ethyl-0-resorufin as substrate incubated for 30 mins in presence of NADPH by EROD assay
# T1 sequence (P05177 whole entry): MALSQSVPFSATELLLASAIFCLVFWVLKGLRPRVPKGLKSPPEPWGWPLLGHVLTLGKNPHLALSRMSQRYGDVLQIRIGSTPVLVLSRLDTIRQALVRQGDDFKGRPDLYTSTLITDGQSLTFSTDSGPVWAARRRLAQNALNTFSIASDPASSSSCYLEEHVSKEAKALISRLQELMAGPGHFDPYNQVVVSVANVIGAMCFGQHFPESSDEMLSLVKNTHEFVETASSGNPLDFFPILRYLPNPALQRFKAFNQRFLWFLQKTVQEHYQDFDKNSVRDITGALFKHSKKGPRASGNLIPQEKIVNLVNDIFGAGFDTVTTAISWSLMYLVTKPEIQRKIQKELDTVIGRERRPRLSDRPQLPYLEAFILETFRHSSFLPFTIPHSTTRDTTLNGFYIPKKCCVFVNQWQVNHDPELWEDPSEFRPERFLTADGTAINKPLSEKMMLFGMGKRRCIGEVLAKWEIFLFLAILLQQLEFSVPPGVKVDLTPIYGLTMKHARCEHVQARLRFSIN
# [30] = system: A549/TR; assay: Reversal of taxol resistance in human A549/Taxol cells assessed as increase in Rho123 accumulation at 5 uM incubated for 20 mins by multimode plate reader analysis; format: functional, cell-based
# [31] = system: A549/TR; assay: Reversal of taxol resistance in human A549/Taxol cells assessed as suppression of P-gp expression level at 5 uM incubated for 20 mins by multimode plate reader analysis; format: functional, cell-based
# [32] = target: Proto-oncogene tyrosine-protein kinase Src (Homo sapiens) (UniProt P12931); assay: Inhibition of SRC pathway in human A549/Taxol cells assessed as decrease in phosphorylated FAK level at 5 uM incubated for 24 hrs; format: cell-based
# Sequence of Proto-oncogene tyrosine-protein kinase Src (Homo sapiens) (P12931 2-536 limits assumed): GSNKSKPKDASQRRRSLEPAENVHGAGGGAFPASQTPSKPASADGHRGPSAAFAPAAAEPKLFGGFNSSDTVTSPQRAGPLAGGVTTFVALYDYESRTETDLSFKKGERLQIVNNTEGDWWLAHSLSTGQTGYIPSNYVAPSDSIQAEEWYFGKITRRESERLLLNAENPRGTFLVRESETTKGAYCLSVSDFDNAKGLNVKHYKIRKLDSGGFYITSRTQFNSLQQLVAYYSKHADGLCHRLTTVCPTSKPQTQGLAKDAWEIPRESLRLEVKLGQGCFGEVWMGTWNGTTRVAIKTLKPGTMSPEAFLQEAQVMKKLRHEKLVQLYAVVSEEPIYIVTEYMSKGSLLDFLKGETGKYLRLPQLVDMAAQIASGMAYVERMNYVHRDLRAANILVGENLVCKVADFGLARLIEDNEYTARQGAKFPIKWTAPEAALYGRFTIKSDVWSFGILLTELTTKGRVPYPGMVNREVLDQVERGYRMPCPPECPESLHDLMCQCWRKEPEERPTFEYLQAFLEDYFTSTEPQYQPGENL
compound,measurement,setting,value
COc1cc(Nc2nc(-c3nc(-c4ccccc4F)cs3)cs2)cc(OC)c1,inhibition,[1],Dose-Dependent Effect
same,Activity,[2],62%
same,Activity,[3],Active
same,CI,[4],0.55
same,CI,[5],0.68
same,CI,[6],0.66
same,CI,[7],0.4
same,CI,[8],0.09
same,CI,[9],0.2
same,Activity,[10],Active
same,inhibition,[11],Dose-Dependent Effect
COc1cc(/C=C/c2ccc(OC)cc2OC)cc(OC)c1,inhibition,[12],Active
same,Activity,[13],Dose-Dependent Effect
same,inhibition,[14],Active
same,inhibition,[15],Dose-Dependent Effect
same,inhibition,[16],Dose-Dependent Effect
same,inhibition,[17],Dose-Dependent Effect
same,inhibition,[18],Active
same,inhibition,[19],Active
same,inhibition,[20],Dose-Dependent Effect
same,inhibition,[21],Dose-Dependent Effect
same,inhibition,[22],Dose-Dependent Effect
same,inhibition,[23],Dose-Dependent Effect
same,inhibition,[24],Dose-Dependent Effect
same,inhibition,[25],inactive
same,inhibition,[26],inactive
same,inhibition,[27],inactive
same,inhibition,[28],inactive
same,IC50,[29],2390 nM
same,Activity,[3],Active
same,Activity,[30],Active
same,Activity,[31],Active
same,inhibition,[32],Active

# From ChEMBL document CHEMBL5236635, “Structure-Based Drug Design and Synthesis of Novel N-Aryl-2,4-bithiazole-2-amine CYP1B1-Selective Inhibitors in Overcoming Taxol Resistance in A549 Cells” (J Med Chem, 2022)
